Measured values: PubChem BioAssay (NCI)
Where “and” joins values, the source holds several entries; their conditions need not be identical. Equal values may be shown once.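 Tested at 5 concentrations; 48 h exposure; 96-well plates; endpoints linearly interpolated, else capped at highest concentration. Abbreviation: GI50, concentration required for 50% inhibition of growth. TGI: total growth inhibition.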

Assays:
Assay in all cases: NCI-60 cell line screen, 48 h
A549 NSCLC = tested on: A549 NSCLC
PC-3 prostate = tested on: PC-3 prostate
KM12 colon = tested on: KM12 colon
UO-31 renal = tested on: UO-31 renal
TK-10 renal = tested on: TK-10 renal
MDA-MB-435 = tested on: MDA-MB-435
OVCAR-3 ovarian = tested on: OVCAR-3 ovarian
SNB-19 CNS = tested on: SNB-19 CNS
HL-60(TB) leukemia = tested on: HL-60(TB) leukemia
COLO 205 colon = tested on: COLO 205 colon

| SMILES | GI50 (A549 NSCLC) | TGI (A549 NSCLC) | GI50 (PC-3 prostate) | TGI (PC-3 prostate) | GI50 (KM12 colon) | TGI (KM12 colon) | GI50 (UO-31 renal) | TGI (UO-31 renal) | GI50 (TK-10 renal) | TGI (TK-10 renal) | GI50 (MDA-MB-435) | TGI (MDA-MB-435) | GI50 (OVCAR-3 ovarian) | TGI (OVCAR-3 ovarian) | GI50 (SNB-19 CNS) | TGI (SNB-19 CNS) | GI50 (HL-60(TB) leukemia) | TGI (HL-60(TB) leukemia) | GI50 (COLO 205 colon) | TGI (COLO 205 colon) |
| --- | --- | --- | --- | --- | --- | --- | --- | --- | --- | --- | --- | --- | --- | --- | --- | --- | --- | --- | --- | --- |
| O=S(=O)(c1cccc2c(I)cccc12)N1CCCNCC1 | 37 µM | > 100 µM | 14.9 µM | 32.8 µM | 16300 nM | 33.9 µM | 15.6 µM | 34 µM | 12.8 µM | 28 µM | 17.7 µM | 35.6 µM | 18.7 µM | 43.3 µM | 20.9 µM | 42.8 µM | 14.2 µM | 43.4 µM | 29.1 µM | > 100 µM |
| C[C@]12CC[C@@H]3c4ccc(O)cc4CC[C@H]3[C@@H]1Cc1cnc(N)nc12 | 44 µM | > 100 µM | 15.7 µM | 35.9 µM | 11800 nM | 26.8 µM | 19 µM | 43.7 µM | 18.9 µM | 42.7 µM | 16.2 µM | 43.5 µM | 23 µM | 58.7 µM | 14.4 µM | 43 µM | 22.1 µM | > 100 µM | 13.7 µM | 27.6 µM |
| CN(C)CC1CCC2=C(C1=O)C(c1ccc(Cl)c(Cl)c1)C1=C(CCC(CN(C)C)C1=O)O2 (stereo unspecified) | 16.2 µM | 32.2 µM | – | 19.9 µM | 2580 nM | 8.85 µM | 2.78 µM | 7.17 µM | 0.7 µM | 1.98 µM | 4.81 µM | 17.5 µM | 1.6 µM | 5.89 µM | 16 µM | 29.7 µM | 0.773 µM | 3.53 µM | 5.48 µM | 19.6 µM |
| O=[N+]([O-])c1cc(Cl)cnc1Br | – | 8.26 µM | – | 20.2 µM | – | 19 µM | – | 3.59 µM | – | 12.4 µM | – | 5.4 µM | – | 6.2 µM | – | 26.8 µM | – | 9.11 µM | – | 3.12 µM |
| O=C1NOC(c2ccc(O)cc2)(c2ccc(O)cc2)c2ccccc21 | > 100 µM | > 100 µM | > 100 µM | > 100 µM | > 100000 nM | > 100 µM | > 100 µM | > 100 µM | > 100 µM | > 100 µM | > 100 µM | > 100 µM | > 100 µM | > 100 µM | > 100 µM | > 100 µM | > 100 µM | > 100 µM | > 100 µM | > 100 µM |
| NC(=O)c1ccc(-c2nc(-c3ccc4c(c3)OCO4)c(-c3ccccn3)[nH]2)cc1 | > 25 µM and 27.7 µM | > 100 µM | > 25 µM and 43.2 µM | > 100 µM | > 25000 nM and 35700 nM | > 100 µM | > 25 µM and 32.3 µM | > 100 µM | > 25 µM and 47.7 µM | > 100 µM | > 25 µM and 38.6 µM | > 100 µM | > 25 µM and 35.3 µM | > 100 µM | > 25 µM and 54.6 µM | > 100 µM | > 25 µM and 29.6 µM | > 25 µM and 69.1 µM | > 25 µM and 31.4 µM | > 100 µM |
| COc1ccc(C2=CC(c3ccc(OC)cc3Br)N3C=CSC3=N2)cc1 (stereo unspecified) | 10.5 µM | 39 µM | 6.4 µM | 31.9 µM | 2280 nM | 5.06 µM | 7.31 µM | 21.2 µM | 13.9 µM | 33.3 µM | 2.58 µM | 7.95 µM | 4.11 µM | 14.8 µM | 9.79 µM | 25.3 µM | 3.2 µM | 19.3 µM | 11.3 µM | 25.1 µM |
| CN(C)c1ccc(C(=NO)c2ccc(N(C)C)cc2)cc1 | 3.34 µM | > 100 µM | 18.1 µM | > 100 µM | 1280 nM | > 100 µM | 4.73 µM | > 100 µM | 7.47 µM | 98.6 µM | 0.277 µM | 1.92 µM | 2.22 µM | 10.1 µM | 4.04 µM | > 100 µM | 1.62 µM | > 100 µM | 3.51 µM | 22.4 µM |
| CC1=C(CCC(C)NCc2ccc(OCCCN3CCCCC3)cc2)C(C)(C)CCC1 (stereo unspecified) | 2.17 µM | 4.35 µM | 1.54 µM | 3.42 µM | 1700 nM | 3.36 µM | 1.56 µM | 2.97 µM | 1.69 µM | 3.19 µM | 0.216 µM | 0.528 µM | 1.79 µM | 4.07 µM | 2.01 µM | 4.26 µM | 2.14 µM | 4.2 µM | 0.197 µM | 0.427 µM |
| Cc1nn(-c2ccc(Cl)cc2)c2nc3c(nc12)C(=O)C(=O)c1ccccc1-3 | 2.06 µM | 4.08 µM | 2.31 µM | > 100 µM | 3760 nM | 15.6 µM | 1.82 µM | 7.14 µM | – | – | 6.31 µM | > 100 µM | 3.48 µM | > 100 µM | 2.48 µM | 8.17 µM | 4.32 µM | > 100 µM | 2.03 µM | 4.86 µM |
| CC1=C(C(=O)N(C)c2ccc(Cl)c(C(=O)OC(C)C)c2)SCCO1 | – | > 100 µM | – | > 100 µM | – | > 100 µM | – | > 100 µM | – | > 100 µM | – | > 100 µM | – | > 100 µM | – | > 100 µM | – | > 100 µM | – | > 100 µM |
| OCCn1cnc2c(SCc3ccccc3)ncnc21 | – | > 100 µM | – | > 100 µM | – | > 100 µM | – | > 100 µM | – | > 100 µM | – | > 100 µM | – | > 100 µM | – | > 100 µM | – | > 100 µM | – | > 100 µM |
| Cc1[nH]c2ccc(F)cc2c1-c1nc2c3cccnc3c3ncccc3c2[nH]1 | 0.701 µM | > 100 µM | 0.393 µM | > 100 µM | 391 nM | > 100 µM | – | – | 0.46 µM | > 100 µM | 0.426 µM | > 100 µM | 0.268 µM | > 100 µM | 0.384 µM | > 100 µM | 0.241 µM | – | 0.147 µM | – |
| Cc1ccc(-c2csc(NC(=O)N3CCN(c4cc5c(cc4F)c(=O)c(C(=O)O)cn5C4CC4)CC3)n2)cc1 | 0.365 µM | > 100 µM | 0.454 µM | > 100 µM | 458 nM | > 100 µM | 0.36 µM | > 100 µM | – | – | 2.06 µM | > 100 µM | 0.492 µM | 18.7 µM | 0.398 µM | > 100 µM | 0.796 µM | 4.51 µM | 1.92 µM | 6 µM |
